In patent US10376520B2, “Methods for the treatment of cardiovascular disorders” (Galapagos NV, priority 2015, dated 2019):

Columns and labels:
RA patients [1] = test: ApoB level (Selectra autoanalyzer), Study 4; type: in vivo, human; details: for ApoB level, 4 weeks CFB: 4 weeks change from baseline
Protocol: (§1) Randomized double-blind, placebo-controlled add on study in subjects with active RA who have an inadequate response to MTX monotherapy, in combination with methotrexate, administered for 4 weeks in the treatment of subjects with active rheumatoid arthritis who have an inadequate response to methotrexate alone.
(§2) Compound 1 (dosed as a [Compound 1:HCl:3H2O]) capsules administered orally in 30 mg, 75 mg, 150 mg, or 300 mg doses per day for 4 weeks.
ApoAI, and ApoB were measured on the Selectra autoanalyzer (Sopachem BV, 44-RI Straat 33, 4051 AP Ochten, The Netherlands). All assays were commercially available from DiaSys Diagnostic Systems GmbH, Alte Strasse 9, 65558 Holzheim, Germany.

RA patients [2] = test: Plasma total cholesterol level (Selectra autoanalyzer), Study 4; type: in vivo, human; details: for Total cholesterol level, 4 weeks CFB: 4 weeks change from baseline
Protocol: as §1, §2
Triglycerides, [HDL] cholesterol, and plasma cholesterol were measured on the Selectra autoanalyzer (Sopachem BV, 44-RI Straat 33, 4051 AP Ochten, The Netherlands). All assays were commercially available from DiaSys Diagnostic Systems GmbH, Alte Strasse 9, 65558 Holzheim, Germany. […]

O=C(Nc1nc2cccc(-c3ccc(CN4CCS(=O)(=O)CC4)cc3)n2n1)C1CC1 [Compound 1, cyclopropanecarboxylic acid {5-[4-(1,1-dioxo-thiomorpholin-4-ylmethyl)-phenyl]-[1,2,4]triazolo[1,5-a]pyridin-2yl}-amide]
ApoB level, 4 weeks CFB (RA patients [1]; 30 mg q.d.): 19.5% | ApoB level, Baseline (RA patients [1]; 30 mg q.d.): 98.8 mg/dL | ApoB level, week 4 (RA patients [1]; 30 mg q.d.): 111 mg/dL | ApoB level, 4 weeks CFB (RA patients [1]; 75 mg q.d.): −1.1% | ApoB level, Baseline (RA patients [1]; 75 mg q.d.): 98.5 mg/dL | ApoB level, week 4 (RA patients [1]; 75 mg q.d.): 94.7 mg/dL | ApoB level, 4 weeks CFB (RA patients [1]; 150 mg q.d.): −1.8% | ApoB level, Baseline (RA patients [1]; 150 mg q.d.): 93.8 mg/dL | ApoB level, week 4 (RA patients [1]; 150 mg q.d.): 90.7 mg/dL | ApoB level, 4 weeks CFB (RA patients [1]; 300 mg q.d.): 6.8% | ApoB level, Baseline (RA patients [1]; 300 mg q.d.): 89.4 mg/dL | ApoB level, week 4 (RA patients [1]; 300 mg q.d.): 95.6 mg/dL | Total cholesterol level, 4 weeks CFB (RA patients [2]; 30 mg q.d.): 25.9% | Total cholesterol level, Baseline (RA patients [2]; 30 mg q.d.): 4.9 mM | Total cholesterol level, week 4 (RA patients [2]; 30 mg q.d.): 5.8 mM | Total cholesterol level, 4 weeks CFB (RA patients [2]; 75 mg q.d.): 5.2% | Total cholesterol level, Baseline (RA patients [2]; 75 mg q.d.): 4.9 mM | Total cholesterol level, week 4 (RA patients [2]; 75 mg q.d.): 5.1 mM | Total cholesterol level, 4 weeks CFB (RA patients [2]; 150 mg q.d.): −1.2% | Total cholesterol level, Baseline (RA patients [2]; 150 mg q.d.): 5 mM | Total cholesterol level, week 4 (RA patients [2]; 150 mg q.d.): 5 mM | Total cholesterol level, 4 weeks CFB (RA patients [2]; 300 mg q.d.): 19.4% | Total cholesterol level, Baseline (RA patients [2]; 300 mg q.d.): 4.7 mM | Total cholesterol level, week 4 (RA patients [2]; 300 mg q.d.): 5.7 mM
